Data taken from PMC9019904, “AD Informer Set: Chemical tools to facilitate Alzheimer's disease drug discovery” (Alzheimer's & Dementia : Translational Research & Clinical …, 2022).

Legend:
[1] = system: BV2 (mouse microglia) cell line; assay: pHrodo-myelin phagocytosis/cell viability high content imaging assay: viability (cell count, nuclear area, nuclear intensity); settings: 48 hours treatment
Experimental: (§1) All AD Informer Set compounds were tested in two immortalized microglial cell lines, murine (BV2), and human (HMC3), in a high‐content imaging assay in duplicate by the Chu lab. Experimental details and all data can be found as supporting information files.
(§2) The role of microglia in AD has been well documented and was thus chosen as a cell type in which to profile the AD Informer Set.[43], [44], [45] As an example, neuroinflammation, as detected by the presence of activated complement proteins, interleukins, cytokines, and chemokines in microglia and astrocytes, is increased early in AD and is considered pathogenic due to its chronic nature.[33], [34] Cytotoxic effects can be assessed by considering multiple parameters.
(§3) Microglial viability and phagocytosis studies: The pHrodo-myelin phagocytosis/cell viability assay, modified based on a published method, was run with immortalized BV2 (mouse microglia) and HMC3 (human microglia) cell lines in the Chu lab at IUSM. The 384-well plate high content analysis assay with BV2 and HMC3 microglial cell lines is used to quantify both phagocytosis and cell viability simultaneously. High content imaging is performed with the ArrayScan automatic imaging system and imaging analysis done with the software on the system. After allowing cells to adhere overnight, they are treated with compounds for total 48 hours including final 20 hours seeded with pHrodo-myelin (labeled phagocytosis ligand, purified […]
(§4) (approximately 22 hours after pHrodo-myelin addition). Three measurements are extracted from the assay: 1) phagocytosis signal by mean total phagocytosis spot intensity per cell, 2) total cell counts per well as the main measurement of cell viability, and 3) mean average nuclear intensity per cell as profiling of cell health since apoptotic cells showing nuclear intensity increase (early apoptosis) and decrease (later apoptosis), respectively. These measurements allow for evaluation of compound-induced phagocytosis (1) and cytotoxicity (2 and 3). Assays were carried out at a single concentration (10 μM). Idelalisib (10 μM) and cytochalasin-D (4 μM) were used as positive controls in the assay. All data, which was an average of 2 data points, was normalized to untreated wells and reported as % control, which is included in the Supporting Information both as a raw data file and summarized in the compound/gene-annotation file.

[2] = system: HMC3 (human microglia) cell line; assay: as above; settings: 48 hours treatment
Experimental: as §1, §2, §3, §4

[3] = system: BV2 (mouse microglia) cell line; assay: pHrodo-myelin phagocytosis/cell viability high content imaging assay: phagocytosis signal; type: cell-based
Experimental: (§5) It is important to note that stressed cells, such as those that are dying, are prone to show an increase in phagocytosis. […] MerTK promotes phagocytosis and thus MerTK inhibition is proposed to lead to inhibition of phagocytosis.[47]
(§6) phagocytosis and cell viability simultaneously. High content imaging is performed with the
(§7) (approximately 22 hours after pHrodo-myelin addition). Three measurements are extracted
(§8) intensity increase (early apoptosis) and decrease (later apoptosis), respectively. These
and 3). […]

[4] = system: HMC3 (human microglia) cell line; assay: as above; type: cell-based
Experimental: as §5, §6, §7, §8
and 3). […]

[5] = BV2, compound 10 uM, pHrodo-myelin
[6] = HMC3, compound 10 uM, pHrodo-myelin
[7] = BV2 cells, 10 uM compound, 48 hours treatment, pHrodo-myelin final 20 hours
[8] = HMC3 cells, 10 uM compound, 48 hours treatment, pHrodo-myelin final 20 hours

Compound | 1. Cell count (% control) ([1]; BV2, compound 10 uM) | 2. Nuclear Area (% Control) ([1]; BV2, compound 10 uM) | 3. Nuclear DNA Intensity (% control) ([1]; BV2, compound 10 uM) | 1. Cell count (% control) ([2]; HMC3, compound 10 uM) | 2. Nuclear Area (% Control) ([2]; HMC3, compound 10 uM) | 3. Nuclear DNA Intensity (% control) ([2]; HMC3, compound 10 uM) | 4. Phagocytosis (% control) [3, 5] [% control] | 4. Phagocytosis (% control) [4, 6] [% control] | 1. Cell count (% control) ([1]; BV2 cells, 10 uM compound) | 2. Nuclear Area (% Control) ([1]; BV2 cells, 10 uM compound) | 3. Nuclear DNA Intensity (% control) ([1]; BV2 cells, 10 uM compound) | 1. Cell count (% control) ([2]; HMC3 cells, 10 uM compound) | 2. Nuclear Area (% Control) ([2]; HMC3 cells, 10 uM compound) | 3. Nuclear DNA Intensity (% control) ([2]; HMC3 cells, 10 uM compound) | 4. Phagocytosis (% control) [3, 7] [% control] | 4. Phagocytosis (% control) [4, 8] [% control]
CC(=O)O[C@@H]1[C@@H](OC(C)=O)[C@@H](O)[C@H](Oc2c(-c3ccc(O)cc3)oc3cc(O)cc(O)c3c2=O)O[C@H]1C [UNC10303187A] | 146.1 | 103.4 | 101.7 | 122.3 | 105.1 | 90.5 | 142.1 | 67.9 | – | – | – | – | – | – | – | –
CNC(=O)c1c(F)cccc1Nc1nc(Nc2cc3c(cc2OC)CCN3C(=O)CN(C)C)nc2[nH]ccc12 [UNC10302864A] | – | – | – | – | – | – | – | – | 66.3 | 109.6 | 102.8 | 108.9 | 90.1 | 123.0 | 89.4 | 58.3
Cl.N=C(CCl)NCCC[C@H](NC(=O)c1ccccc1)C(N)=O [UNC10303161A] | 107.1 | 104.4 | 99.5 | 164.2 | 99.9 | 88.6 | 134.6 | 67.2 | – | – | – | – | – | – | – | –
Cc1cc2c(cc1C1(c3ccc(C(=O)O)cn3)CC1)C(C)(C)CCC2(C)C [UNC10302904A] | – | – | – | – | – | – | – | – | 72.5 | 111.9 | 92.6 | 110.6 | 108.2 | 90.0 | 105.9 | 73.6
C=Cc1c(C)c2cc3nc(cc4[nH]c(cc5nc(cc1[nH]2)C(C)=C5CCC(=O)O)c(CCC(=O)OC)c4C)[C@@]1(C)C3=CC=C(C(=O)OC)[C@H]1C(=O)OC [UNC10303159A] | 114.7 | 121.1 | 113.2 | 113.8 | 131.2 | 126.0 | 174.1 | 5.8 | – | – | – | – | – | – | – | –
CC(=O)N1CCN(c2ccc(OC[C@H]3CO[C@](Cn4ccnc4)(c4ccc(Cl)cc4Cl)O3)cc2)CC1 [UNC10100724A] | – | – | – | – | – | – | – | – | 129.7 | 103.8 | 104.7 | 125.5 | 96.3 | 100.1 | 280.0 | 144.4
COc1cc(N2CCC(N3CCN(C)CC3)CC2)ccc1Nc1ncc(Cl)c(Nc2ccccc2P(C)(C)=O)n1 [UNC10244797A] | 44.4 | 109.2 | 111.1 | 103.9 | 120.2 | 97.2 | 236.8 | 99.4 | – | – | – | – | – | – | – | –
CCc1ccc(S(=O)(=O)c2ccccc2)cc1S(=O)(=O)NCCCN(C)C [UNC10302948A] | – | – | – | – | – | – | – | – | 115.1 | 106.0 | 108.0 | 127.5 | 97.8 | 101.2 | 187.1 | 143.6
Cc1ccc(S(=O)(=O)O)cc1.Nc1n[nH]cc1-c1cc(Cl)ccc1Oc1cc(F)c(S(=O)(=O)Nc2cscn2)cc1Cl [UNC10303160A] | 121.5 | 103.1 | 99.3 | 135.7 | 95.0 | 100.7 | 124.9 | 74.7 | – | – | – | – | – | – | – | –
CCN(CC)Cc1ccc(C(=O)N(CCc2ccccc2OC)[C@@H]2CCNC2)cc1.Cl.Cl [UNC10302833A] | – | – | – | – | – | – | – | – | 70.3 | 106.1 | 102.7 | 76.9 | 96.9 | 107.9 | 210.8 | 38.5
CCn1c(=O)/c(=C2\Sc3ccccc3N2C)s/c1=C\c1ccccn1 [UNC10302975A] | – | – | – | – | – | – | – | – | 107.1 | 104.2 | 108.3 | 120.1 | 99.3 | 95.9 | 118.8 | 87.9
CNc1nc(C)nc(N[C@H]2CCC[C@@H](C(=O)NCc3ccc(C#N)cc3C(F)(F)F)C2)n1 [UNC10302679A] | – | – | – | – | – | – | – | – | 107.8 | 106.3 | 102.1 | 141.0 | 100.7 | 92.7 | 135.7 | 69.3
CCC(=O)N1CCC(NC(=O)Nc2ccc(OC(F)(F)F)cc2)CC1 [UNC10302681A] | – | – | – | – | – | – | – | – | 105.6 | 99.0 | 108.5 | 147.2 | 103.6 | 94.9 | 102.7 | 96.8
CC[C@H](C)[C@H](N)C(=O)NCCN1CCOCC1.Cl.Cl [UNC10303094A] | – | – | – | – | – | – | – | – | 133.1 | 103.4 | 103.6 | 133.1 | 103.2 | 95.9 | 157.3 | 75.5
CC(C)c1ccc(/C=N/NC(=O)c2ccc(O)cc2)cc1 [UNC10302878A] | – | – | – | – | – | – | – | – | 104.0 | 103.1 | 108.0 | 137.1 | 101.0 | 96.0 | 129.4 | 80.2
